Data as given in paper PMC10609173, “Antiplasmodial and Antileishmanial Activities of a New Limonoid and Other Constituents from the Stem Bark of Khaya senegalensis” (Molecules, 2023).
In brackets after ≈: the same amount, converted by molar mass. Where two headings read alike, the source gives them in different places.

Assays:
[1] = test system: multidrug-resistant Dd2 strain of Plasmodium falciparum (PfDd2); test: Antiplasmodial SYBR Green I fluorescence assay, PfDd2 strain; type: cell-based; conditions: Plasmodium falciparum
Description: (§1) The parasite strains used in this study are continuously cultured at the Antimicrobial and Biocontrol Agents Unit of the University of Yaoundé I, and were graciously provided by BEI Resources (https://www.beiresources.org (accessed on 16 February 2019)). They comprise the Leishmania donovani strain (1S(MHOM/SD/62/1S), the multiresistant (PfDd2), and the chloroquine-sensitive (Pf3D7-(MRA-102)) strains of Plasmodium falciparum. RPMI 1640 media supplemented with 0.2% sodium bicarbonate (Sigma Aldrich, Billings, MT, USA), 0.5% Albumax II (Gibco), 1% hypoxanthine 100X (Gibco, Billings, MT, USA), 25 mM HEPES, and 0.04% gentamicin (Sigma Aldrich) was used to sustain P. falciparum strains in sterile petri dishes. Fresh red blood cells from healthy O^+ human volunteers were also added to the medium. These cells were suspended at 4% hematocrit (v/v) and incubated at 37 °C in a humidified environment with 5% CO2. To regularly maintain the culture, fresh medium was added to the culture every day. Thin blood smears stained with 10% Giemsa were used to microscopically monitor cell-cycle transition and parasitemia under immersion oil.
(§2) The antiplasmodial efficacy of the samples was evaluated using the SYBR Green I-based fluorescence assay, as previously reported by Smilkstein et al., on a sorbitol-synchronized ring stage culture of Plasmodium falciparum (PfDd2 and Pf3D7 strains). The test relies on the development of intense fluorescence following SYBR green binding to the exposed DNA found in wells containing healthy cells. Ninety microliters of parasites prepared with 1% hematocrit and 2% parasitemia and 10 μL of test sample extracts, fractions, isolated chemicals, chloroquine, and artemisinin were each added in triplicate into wells of a flat-bottomed microplate. The final test concentration values for the samples varied from 50 μg/mL-0.08 μg/mL and 100 μg/mL-0.16 μg/mL for extract/fractions. Following a 72 h incubation at 37 °C, 100 μL of SYBR Green I solution prepared with lysis buffer (0.2 μL of 10,000 SYBR Green I per mL of lysis buffer) made of EDTA (5 mM), Tris (20 mM; pH 7.5), Triton X-100 (0.08%; v/v), and saponin (0.008%; m/v) was added to each well. Fluorescence measurements were taken using an Infinite M200 microplate reader (Tecan, MT, USA) at emission and excitation wavelengths of 538 and 485 nm, respectively.
(§3) The resulting fluorescence readings were used to calculate the growth inhibition percentages relative to the negative control for each sample and for each of the tested doses. GraphPad Prism 8.0 software was used to generate concentration-response curves from the nonlinear regression fit to determine the median inhibitory or cytotoxic concentration (IC50/CC50). The resistance index (RI) for antiplasmodial tests was calculated as the ratio between the samples’ IC50 values for the chloroquine-sensitive strain 3D7 and the multiresistant strain Dd2 [69]. Inhibitors with an RI value below 1 were considered to act preferentially on the resistant strain. Based on each inhibitor’s antiparasitic efficacy (IC50) and cell toxicity (CC50), selectivity indices (SI) were calculated [SI = CC50 (RAW)/IC50 (Parasites)]. Samples were classified as poorly toxic to RAW cells if their SI values were greater than 10 [70].

[2] = test system: chloroquine-sensitive 3D7 strain of Plasmodium falciparum (Pf3D7); test: Antiplasmodial SYBR Green I fluorescence assay, Pf3D7 strain; type: cell-based; conditions: read-out: Antiplasmodial Activity Pf3D7 IC50 ± SD
Description: as §1, §2, §3

[3] = Cytotoxicity assay (resazurin) on RAW 264.7 macrophages; type: cell-based, murine; conditions: mouse
Procedure: The murine macrophage RAW 264.7 cell line was grown in DMEM (Dulbecco’s modified Eagle’s medium) containing 1% penicillin-streptomycin, 1% nonessential amino acids (NEA), and 10% HIFBS at 37 °C, and 5% CO2 in a humidified environment. A reverse Etaluma fluorescence microscope was used to view the cells every day, and the growth media was replaced every 72 h. At 80% confluence, cells were isolated using 0.25% Trypsine-EDTA (Gibco, MT, USA).
The murine macrophages, RAW 264.7 cells, were plated into a 96-well cell culture treated flat-bottomed plate ([…], Inc., Newton, NC 28658, USA) at a density of 10 × 10^4 cells/100 μL/well and incubated overnight to enable cell adhesion. A fresh complete medium containing serially diluted concentrations of crude extract, fractions, and compounds was used to replace the previous medium. The final assay concentration values for extracts/fractions and compounds varied from 400 μg/mL to 0.8 μg/mL and 100–0.16 μg/mL, respectively. Podophyllotoxin (Sigma-Aldrich, Munich, Germany) was used as a positive control at a maximum dose of 10 μM. After 48 h of incubation, 10 μL of resazurin solution (0.15 mg/mL dissolved in PBS) was added to each well, and the plates were incubated for an additional 4 h. Fluorescence data were finally recorded with a Magellan Infinite M200 plate reader (Tecan, Germany) at excitation and emission wavelengths of 530 nm and 590 nm, respectively.
as §3

[4] = test system: promastigote form of Leishmania donovani (1S(MHOM/SD/62/1S)); test: Antileishmanial resazurin-based assay on promastigotes; type: cell-based; conditions: for IC50: Leishmania donovani, read-out: Antileishmanial Activity IC50 ± SD; for Antileishmanial Selectivity (SI): SI = CC50 against macrophages/IC50 against promastigotes
Procedure: A T-75 cm^2 cell culture flask was filled with complete Medium 199 [M199 supplemented with 10% heat-inactivated fetal bovine serum (HIFBS) and 100 IU/mL penicillin/streptomycin (Sigma, Darmstadt, Germany)] and used to grow the promastigote forms of Leishmania donovani. Every 72 h, flasks were subcultured and incubated at 28 °C.
The resazurin-based assay was used to evaluate the antileishmanial activity of the extract (100 μg/mL–0.16 μg/mL), major fractions (100 μg/mL–0.16 μg/mL), and isolated compounds (50 μg/mL–0.08 μg/mL) against the promastigote form of Leishmania donovani. Briefly, 10 μL of inhibitors at various triplicate doses (as prescribed for the antiplasmodial assay) were added to 90 μL of promastigotes from a logarithmic phase culture at a density of 4.10^5 parasites/mL. The plates were incubated for 28 h at 28 °C, and 10 μL of resazurin solution (Sigma, Darmstadt, Germany) was added. Amphotericin B (Sigma, Darmstadt, Germany) (10 μg–0.016 μg/mL) and 0.1% DMSO-treated wells were used as the […], respectively. After a further 44 h of incubation, plates were read using a Magelan Infinite M200 fluorescence plate reader (Tecan, Männedorf, Switzerland) at excitation and emission wavelengths of 530 and 590 nm, respectively.
as §3

[5] = test system: chloroquine-sensitive/sulfadoxine-resistant Pf3D7 strain; set-up: method as in PMID 36837917; conditions: in vitro; isolated from Trichilia monadelpha; cited from earlier work
promastigote = test system: promastigote; set-up: method as in PMID 15070160; conditions: from Pourouma guianensis; cited from earlier work
[6] = test system: clinical isolate of P. falciparum; set-up: method as in doi:10.1080/13880200601009123; conditions: cited from earlier work
Leishmania amazonensis = test system: Leishmania amazonensis; set-up: method as in PMID 21343887; conditions: cited from earlier work
amastigote = test system: amastigote; set-up: method as in PMID 15070160; conditions: from Pourouma guianensis; cited from earlier work
[7] = test system: amastigote forms of Leishmania donovani; set-up: method as in doi:10.1076/phbi.39.4.284.5921; conditions: isolated from Khaya senegalensis; cited from earlier work
[8] = DD2, 72 h, read-out: Antiplasmodial Activity PfDd2 IC50 ± SD, PfDd2 strain, ring stage, 72 h
[9] = 3D7, Pf3D7 strain, ring stage, 72 h
[10] = L. donovani promastigotes, 28 °C
[11] = DD2, PfDd2 strain, ring stage, 72 h, read-out: Antiplasmodial Activity PfDd2 IC50 ± SD
[12] = RAW 264.7 macrophages, 48 h incubation, resazurin, read-out: Cytotoxicity on RAW 264.7 Cells CC50 ± SD
[13] = RAW 264.7 macrophage cells, RAW 264.7 macrophages, 48 h incubation, resazurin, read-out: Cytotoxicity on RAW 264.7 Cells CC50 ± SD

Row | SMILES | IC50 [1, 8] | IC50 [2, 9] | CC50 at 48 h [3] | IC50 [4, 10] | Antileishmanial Selectivity (SI) [4] | IC50 [1, 11] | other results
1 | C=C(C)[C@@H]1CC[C@]2(C(=O)O)CC[C@]3(C)[C@H](CC[C@@H]4[C@@]5(C)C[C@@H](O)[C@H](O)C(C)(C)[C@@H]5CC[C@]43C)[C@@H]12 [Alphitolic acid (3), alphitolic acid] | > 200 µg/mL | 146.77 ± 0.13 µg/mL (≈ 310 µM) | 35.8 µg/mL (≈ 75.6 µM) | 17.1 ± 0.9 µg/mL (≈ 36.2 µM) | 2.09 |  | 
2 | C[C@@H]1[C@H](O)[C@@H](C)/C=C/C=C/C=C/C=C/C=C/C=C/C=C/[C@H](O[C@@H]2O[C@H](C)[C@@H](O)[C@H](N)[C@@H]2O)C[C@@H]2O[C@](O)(C[C@@H](O)C[C@@H](O)[C@H](O)CC[C@@H](O)C[C@@H](O)CC(=O)O[C@H]1C)C[C@H](O)[C@H]2C(=O)O [Amphotericin B, amphotericin B, reference compound] |  |  |  | 3.14 ± 0.46 µg/mL (≈ 3.4 µM) |  |  | 
3 | C[C@@H]1CC[C@H]2[C@@H](C)C(=O)O[C@@H]3O[C@@]4(C)CC[C@@H]1[C@]32OO4 [Artemesin, artemisinin, reference compound] |  | 0.02 µg/mL (≈ 0.0708 µM) |  |  |  | 0.024 ± 0.24 µg/mL (≈ 0.085 µM) | 
4 | COc1ccc(-c2cc(=O)c3c(O)c(OC)c(OC)cc3o2)cc1OC [Belamcanidin (8), Belamcanidin] |  | 104.9 ± 0.39 µg/mL (≈ 293 µM) | > 400 µg/mL | 22.21 ± 0.08 µg/mL (≈ 62 µM) | >18.013 | 50.97 ± 0.37 µg/mL (≈ 142 µM) | 
5 | CC1(C)CC[C@]2(C(=O)O)CC[C@]3(C)C(=CCC4[C@@]5(C)C[C@@H](O)[C@H](O)C(CO)(CO)C5CC[C@]43C)C2[C@@H]1O (stereo partly drawn) [Bellericagenin B (2), bellericagenin B] |  | 107.7 ± 0.37 µg/mL (≈ 207 µM) | > 400 µg/mL | 6.5 ± 0.01 µg/mL (≈ 12.5 µM) | >61.54 | 34.02 ± 0.09 µg/mL (≈ 65.3 µM) | 
6 | CCN(CC)CCCC(C)Nc1ccnc2cc(Cl)ccc12 (stereo not drawn) [Chloroquine, Chloroquine phosphate, reference compound] |  |  |  |  |  |  | IC50 ([1]; DD2, 72 h, read-out: Antiplasmodial Activity PfDd2 IC50 ± SD): 0.085 ± 0.01 µg/mL; IC50 ([2]; 3D7, 72 h): 0.022 ± 0.25 µg/mL
7 | COC(=O)[C@H](O)[C@@H]1[C@@]2(C)[C@H]3CC[C@@]4(C)[C@H](c5ccoc5)OC(=O)C[C@@]45O[C@H]4C(=O)[C@@]1(C)C[C@]2(OC(C)=O)[C@@H]4[C@@]35O [Khayanolide E (6), khayanolide E] |  | 56.98 ± 0.08 µg/mL (≈ 102 µM) | 81.6 µg/mL (≈ 146 µM) | 81.73 ± 0.12 µg/mL (≈ 146 µM) | 0.99 | 14.03 ± 0.06 µg/mL (≈ 25.1 µM) | IC50 against Pf3D7 [5]: 1.68 µg/mL (≈ 3.01 µM)
8 | C=C1[C@@H]2CC[C@@]3(C)[C@H](c4ccoc4)OC(=O)C[C@]13O[C@H]1CC(=O)C(C)(C)[C@H](CC(=O)OC)[C@]12C [Methylangolensate (4), methyl angolensate] | 20.5 ± 0.45 µg/mL (≈ 43.6 µM) |  |  |  | 2.81 |  | IC50 ([2]; 3D7, 72 h): 165.19 ± 0.06 µg/mL (≈ 351 µM); CC50 at 48 h [3, 12]: 72.7 µg/mL (≈ 155 µM); IC50 [4]: 25.8 ± 0.27 µg/mL (≈ 54.9 µM)
9 | CC1(C)CC[C@]2(C(=O)O)CC[C@]3(C)C(=CC[C@@H]4[C@@]5(C)CC[C@H](O)C(C)(C)[C@@H]5CC[C@]43C)[C@@H]2C1 [Oleanolic acid (7), oleanolic acid] | 43.6 ± 0.73 µg/mL (≈ 95.4 µM) | 93.58 ± 0.92 µg/mL (≈ 205 µM) |  | 30.6 ± 0.67 µg/mL (≈ 67.1 µM) | ˃13.06 |  | IC50, antipromastigote effect (promastigote): 10 µg/mL (≈ 21.9 µM); IC50, growth of clinical isolate of P. falciparum [6]: 15.2 µg/mL; CC50 at 48 h [3, 13]: > 400 µg/mL; IC50, growth of Leishmania amazonensis (Leishmania amazonensis): 439.5 µg/mL; IC50, antiamastigote inhibitory activity (amastigote): 27 µg/mL (≈ 59.1 µM)
10 | COc1cc([C@@H]2c3cc4c(cc3[C@H](O)[C@H]3COC(=O)[C@H]23)OCO4)cc(OC)c1OC [Podophyllotoxin, reference compound] |  |  |  |  |  |  | CC50 at 48 h [3, 12]: 0.71 ± 0.2 µg/mL (≈ 1.71 µM)
11 | C=C1C2C(OC3CC(=O)OC4(C)COC(=O)CC4C32C)C(OC(=O)C(O)C(C)CC)C2(C)C(c3ccoc3)CC(=O)C12O (stereo not drawn) [Rohituka-3 (5), rohituka-3] | 15.9 ± 0.33 µg/mL (≈ 26.5 µM) | 68 ± 0.02 µg/mL (≈ 113 µM) |  | 23.35 ± 0.21 µg/mL (≈ 38.9 µM) | >17.13 |  | CC50 at 48 h [3, 13]: > 400 µg/mL
12 | Oc1cc(O)c2c(c1)O[C@H](c1ccc(O)c(O)c1)[C@@H](O)[C@@H]2c1c(O)cc2c(c1O)C[C@H](O)[C@@H](c1ccc(O)c(O)c1)O2 [catechin-(4a,6)-catechin] |  |  |  |  |  |  | IC50 against amastigote forms of Leishmania donovani [7]: 3.85 µg/mL
13 | Oc1cc(O)c2c(c1)O[C@H](c1ccc(O)c(O)c1)[C@@H](O)[C@@H]2c1c(O)cc(O)c2c1O[C@H](c1ccc(O)c(O)c1)[C@@H](O)C2 [catechin-(4a,8)-catechin] |  |  |  |  |  |  | IC50 against amastigote forms of Leishmania donovani [7]: 3.98 µg/mL
